From ChEMBL document CHEMBL1138705, “Tetrahydroisoquinoline derivatives as melatonin MT2 receptor antagonists” (Bioorg Med Chem Lett, 2004)

Key:
[1] = molecular target: Melatonin receptor type 1A (Homo sapiens, UniProt P48039); experiment: Inhibitory concentration against Melatonin receptor type 1A
[2] = molecular target: T1, Melatonin receptor type 1B (Homo sapiens, UniProt P49286); experiment: Inhibitory concentration against Melatonin receptor type 1B
T1 sequence (P49286 whole entry): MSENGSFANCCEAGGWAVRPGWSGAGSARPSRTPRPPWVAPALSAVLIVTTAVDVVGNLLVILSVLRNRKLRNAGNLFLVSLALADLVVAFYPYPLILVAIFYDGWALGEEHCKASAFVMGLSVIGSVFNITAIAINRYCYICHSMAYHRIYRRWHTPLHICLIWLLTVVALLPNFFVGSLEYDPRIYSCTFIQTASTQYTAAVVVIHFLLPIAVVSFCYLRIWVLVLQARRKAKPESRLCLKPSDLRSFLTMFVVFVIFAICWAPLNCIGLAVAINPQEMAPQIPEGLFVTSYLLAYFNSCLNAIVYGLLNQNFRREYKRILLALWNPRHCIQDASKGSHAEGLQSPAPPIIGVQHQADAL

Melatonin receptor type 1A, sequence (P48039 whole entry): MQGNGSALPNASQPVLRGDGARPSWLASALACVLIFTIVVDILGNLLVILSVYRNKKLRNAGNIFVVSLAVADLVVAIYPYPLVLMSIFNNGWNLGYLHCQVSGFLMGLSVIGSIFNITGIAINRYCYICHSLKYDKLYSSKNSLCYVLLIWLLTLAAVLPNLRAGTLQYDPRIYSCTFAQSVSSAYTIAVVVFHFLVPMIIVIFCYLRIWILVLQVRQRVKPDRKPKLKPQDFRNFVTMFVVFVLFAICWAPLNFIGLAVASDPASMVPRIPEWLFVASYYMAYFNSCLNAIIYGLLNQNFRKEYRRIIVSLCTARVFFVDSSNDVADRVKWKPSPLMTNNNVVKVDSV

Compound | IC50 [1] [nM] | IC50 [2] [nM]
COc1ccc2c(c1)C(CC(c1ccccc1)c1ccccc1)N(C(C)=O)CC2 (stereo unspecified) | 512 | 5.5
COc1cc2c(cc1OC)C(CC(c1ccccc1)c1ccccc1)N(C(=O)c1ccc(C(F)(F)F)cc1)CC2 (stereo unspecified) |  | 810
CC(=O)N1CCc2c(ccc3c2CCO3)C1CC(c1ccccc1)c1ccccc1 (stereo unspecified) | > 1000 | > 1000
CCCC(=O)N1CCc2cc(OC)c(OC)cc2C1CC(c1ccccc1)c1ccccc1 (stereo unspecified) | > 1000 | 79
COc1cccc2c1CCN(C(C)=O)C2CC(c1ccccc1)c1ccccc1 (stereo unspecified) | > 1000 | > 1000
COc1cc2c(c(OC)c1)C(CC(c1ccccc1)c1ccccc1)N(C(C)=O)CC2 (stereo unspecified) | > 1000 | 45
COc1cc2c(cc1OC)C(CC(c1ccccc1)c1ccccc1)N(C(=O)c1ccccc1)CC2 (stereo unspecified) | > 1000 | 120
COc1cc2c(cc1OC)C(CC(c1ccccc1)c1ccccc1)N(C=O)CC2 (stereo unspecified) | 621 | 9.9
CC(=O)N1CCc2cc(F)ccc2C1CC(c1ccccc1)c1ccccc1 (stereo unspecified) | > 1000 | 140
COc1cc2c(cc1OC)C(CCc1ccccc1)N(C(=O)C1CCCCC1)CC2 (stereo unspecified) |  | 220
COc1cc2c(cc1OC)C(CC(c1ccccc1)c1ccccc1)N(C(=O)C1CCCCC1)CC2 (stereo unspecified) |  | 370
CCCCCC(=O)N1CCc2cc(OC)c(OC)cc2C1CC(c1ccccc1)c1ccccc1 (stereo unspecified) |  | 280
CCCCCCC(=O)N1CCc2cc(OC)c(OC)cc2C1CC(c1ccccc1)c1ccccc1 (stereo unspecified) |  | 400
COc1cc2c(cc1OC)C(CCc1ccccc1)N(C=O)CC2 (stereo unspecified) | > 1000 | 83
COc1ccc2c(c1)CCN(C(C)=O)C2CC(c1ccccc1)c1ccccc1 (stereo unspecified) | > 1000 | 270
COc1cc2c(cc1OC)C(CCc1ccccc1)N(C(=O)C1CCC1)CC2 (stereo unspecified) |  | 24
COC(=O)N1CCc2cc(OC)c(OC)cc2C1CC(c1ccccc1)c1ccccc1 (stereo unspecified) | 673 | 22
COc1cc2c(cc1OC)C(CC(c1ccccc1)c1ccccc1)N(C(=O)C(F)(F)F)CC2 (stereo unspecified) | > 1000 | 100
COc1cc2c(cc1OC)C(CC(c1ccccc1)c1ccccc1)N(C(=O)C1CCC1)CC2 (stereo in doubt; 1m) |  | 240
COc1cc2c(cc1OC)C(CC(c1ccccc1)c1ccccc1)N(C(=O)C1CCC1)CC2 (stereo in doubt; 1j) |  | 310
COc1cc2c(cc1Br)CCN(C(C)=O)C2CC(c1ccccc1)c1ccccc1 (stereo unspecified) | 230 | 24
CCC(=O)N1CCc2cc(OC)c(OC)cc2C1CC(c1ccccc1)c1ccccc1 (stereo unspecified) | > 1000 | 62
CC(=O)N1CCc2ccccc2C1CC(c1ccccc1)c1ccccc1 (stereo unspecified) | > 1000 | > 1000
CNC(=O)N1CCc2cc(OC)c(OC)cc2C1CC(c1ccccc1)c1ccccc1 (stereo unspecified) | > 1000 | 60
COc1cc2c(cc1OC)C(CCc1ccccc1)N(C(=O)c1ccc(C(F)(F)F)cc1)CC2 (stereo unspecified) |  | 1000
COc1cc2c(cc1OC)C(CC(c1ccccc1)c1ccccc1)N(C(C)=O)CC2 (stereo unspecified) | > 1000 | 9.7
COc1ccc2c(c1OC)CCN(C(C)=O)C2CC(c1ccccc1)c1ccccc1 (stereo unspecified) | > 1000 | > 1000
COc1cc2c(cc1OC)C(CC(c1ccccc1)c1ccccc1)N(C(N)=O)CC2 (stereo unspecified) | > 1000 | 30
COc1cc2c(cc1OC)C(CCc1ccccc1)N(C(C)=O)CC2 (stereo unspecified) | > 1000 | 76
COc1cc2c(cc1OC)C(CCc1ccccc1)N(C(N)=O)CC2 (stereo unspecified) | > 1000 | 160
